Measurements published in patent US4920231A, “Process of braking triflouromethyl compounds” (Roussel Uclaf, priority 1988, dated 1990).
≈ marks a conversion by molar mass, not a printed value.

Key:
Assay type in all cases: in vivo
[1] = system: Boophilus microplus larvae; experiment: Study of the activity on Boophilus microplus larvae (spraying tower, % mortality); conditions: for activity on Boophilus microplus larvae (conclusion): 100, 10 and 1 ppm; for mortality at 1 ppm / mortality at 10 ppm / mortality at 100 ppm: Rhipicephalus microplus, in Bos taurus, larvae, after 24 hours
Procedure: C. Study of the acaricide activity in animals
(a) Study of the activity on Boophilus microplus larvae
(§1) The substance under test was dissolved in a mixture of dimethylformamide, emulsifiers and Arcopal so as to obtain a concentrate emulsifying at 10%. This concentrate was diluted with water to obtain solutions of the desired concentrations of 100, 10 and 1 ppm. Using a spraying tower, the various solutions were sprayed over the larvae of tropical cattle ticks of Boophilus microplus type, and after 24 hours, the percentage of mortality was determined by counting the living and dead larvae.

Aphis cracivora = experiment: Study of the lethal effect on Aphis cracivora (contact-injection method, treated broad-bean leaf); conditions: 7-day old adults, contact with treated leaf for one hour, mortality after 24 hours
Procedure: B. Study of the lethal effect on Aphis cracivora
7-day old adults were used and 10 aphids per concentration used were employed. A contact-injection method was used and the treatment of a broad-bean leaf was carried out with a Fisher gun, the leaf being placed in a plastic Petri dish on a circle of damp paper. The treatment was carried out with 2 ml of acetone solution of the product under test (1 ml per side of leaf). The infestation by the insects was brought about after drying the leaf and the insects were kept in contact with the leaf for one hour. Insects were placed on untreated leaves and the mortality was checked after 24 hours.

[2] = system: Boophilus microplus females; experiment: Study of the activity on inhibition of the reproduction of Boophilus microplus ticks; conditions: for activity on inhibition of reproduction of Boophilus microplus ticks (conclusion): 100 to 0.19 ppm; for inhibition at 0.19 ppm / inhibition at 0.38 ppm / inhibition at 0.75 ppm / inhibition at 1.5 ppm / inhibition at 3.1 ppm / inhibition at 6.2 ppm / inhibition at 12.5 ppm / inhibition at 25 ppm / inhibition at 50 ppm / inhibition at 100 ppm: Rhipicephalus microplus, 5 min, females submerged for 5 minutes
Procedure: as §1, with “larvae. The results are as follows:” for “larvae.”
(b) Study of the activity on inhibition of the reproduction of Boophilus microplus ticks
Boophilus microplus females, ready to lay eggs, were submerged for 5 minutes in the solutions prepared above and then they were placed in a heated chamber to lay the eggs. […]

house-fly = experiment: Study of lethal activity on the house-fly (topical application); conditions: four-day old female house-flies, topical 1 μl acetone solution on dorsal thorax, mortality at 24 hours; without synergist or with piperonyl butoxide (table does not say which)
Procedure: A. Study of lethal activity on the house-fly
The insects tested were four-day old female house-flies and the test was carried out by topical application of 1 μl of acetone solution on the dorsal thorax of the insects using an Arnold micromanipulator. 50 individuals per treatment were used and a mortality check was carried out 24 hours after treatment. The tests were carried out without a synergist or with the addition of piperonyl butoxide (10 parts of synergist per 1 part of test compound). The experimental results, given in the following table, are expressed in LD 50 (in nanograms) necessary to kill 50% of the insects: […]

SMILES | activity on Boophilus microplus larvae (conclusion) [1] | mortality at 1 ppm [1] | mortality at 10 ppm [1] | mortality at 100 ppm [1] | LC50 (Aphis cracivora) | activity on inhibition of reproduction of Boophilus microplus ticks (conclusion) [2] | inhibition at 0.19 ppm [2] | inhibition at 0.38 ppm [2] | inhibition at 0.75 ppm [2] | inhibition at 1.5 ppm [2] | inhibition at 3.1 ppm [2] | inhibition at 6.2 ppm [2] | inhibition at 12.5 ppm [2] | inhibition at 25 ppm [2] | inhibition at 50 ppm [2] | inhibition at 100 ppm [2] | LD 50 (house-fly)
C[C@@H](OC(=O)[C@@H]1[C@@H](/C=C(/c2ccc(Cl)cc2)C(F)(F)F)C1(C)C)c1cccc(Oc2ccccc2)n1 [Example 3, 1-(6-phenoxy-2-pyridyl)-ethyl [1R-[1α(R*), 3β]]2,2-dimethyl-3-[(ΔZ)-2-(4-chlorophenyl)-3,3,3-trifluoro-1-propenyl]-cyclopropane carboxylate] | remarkable activity | 100% | 100% | 100% | 1.34 µg/mL (≈ 2.6 µM) | remarkable activity | 100% | 100% | 100% | 100% | 100% | 100% | 100% | 100% | 100% | 100% | 19.6 ng/insect
CC1(C)[C@H](/C=C(/c2ccc(Cl)cc2)C(F)(F)F)[C@H]1C(=O)O[C@H](C#N)c1ccc(F)c(Oc2ccccc2)c1 [Example 4, α-Cyano-4-fluoro-3-phenoxy-benzyl [1R-[1α(S*)-3β]-2,2-dimethyl-3-[(ΔZ) 2-(4-chlorophenyl)-3,3,3-trifluoro-1-propenyl]-cyclopropane carboxylate] | remarkable activity | 100% | 100% | 100% | 0.6 µg/mL (≈ 1.1 µM) | remarkable activity | 100% | 100% | 100% | 100% | 100% | 100% | 100% | 100% | 100% | 100% | 5.3 ng/insect
CC(OC(=O)[C@@H]1[C@@H](/C=C(/c2ccc(Cl)cc2)C(F)(F)F)C1(C)C)c1cccc(Oc2ccccc2)n1 (stereo partly drawn) [Example 5, 1-(6-phenoxy-2-pyridyl)-ethyl [1R-(1α,(RS), 3β]] 2,2-dimethyl-3-[(ΔZ)-2-(4-chlorophenyl)-3,3,3-trifluoro-1-propenyl]-cyclopropane carboxylate] | remarkable activity | 100% | 100% |  |  | remarkable activity |  | 85% | 100% | 100% | 100% | 100% | 100% | 100% | 100% | 100% | 
